Data: US20120129843A1, “PYRIDYL-THIAZOLYL INHIBITORS OF PRO-MATRIX METALLOPROTEINASE ACTIVATION” (priority 2010, published 2012)
pIC50, pKd: −log10 of the molar value. Counter-ions that a name gives are not always drawn.

What was measured:
[1] = target: T1, full-length proMMP9(1-707) (SEQ ID NO:1), activation by catalytic MMP3 (Homo sapiens, UniProt P14780, R574P); assay: proMMP9/MMP3 P126 Activation Assay; type: biochemical
T1 construct: made in house; host or cells: HEK293 (proMMP9, secreted); E. coli (MMP3)
T1 sequence (P14780 20-707 R574P): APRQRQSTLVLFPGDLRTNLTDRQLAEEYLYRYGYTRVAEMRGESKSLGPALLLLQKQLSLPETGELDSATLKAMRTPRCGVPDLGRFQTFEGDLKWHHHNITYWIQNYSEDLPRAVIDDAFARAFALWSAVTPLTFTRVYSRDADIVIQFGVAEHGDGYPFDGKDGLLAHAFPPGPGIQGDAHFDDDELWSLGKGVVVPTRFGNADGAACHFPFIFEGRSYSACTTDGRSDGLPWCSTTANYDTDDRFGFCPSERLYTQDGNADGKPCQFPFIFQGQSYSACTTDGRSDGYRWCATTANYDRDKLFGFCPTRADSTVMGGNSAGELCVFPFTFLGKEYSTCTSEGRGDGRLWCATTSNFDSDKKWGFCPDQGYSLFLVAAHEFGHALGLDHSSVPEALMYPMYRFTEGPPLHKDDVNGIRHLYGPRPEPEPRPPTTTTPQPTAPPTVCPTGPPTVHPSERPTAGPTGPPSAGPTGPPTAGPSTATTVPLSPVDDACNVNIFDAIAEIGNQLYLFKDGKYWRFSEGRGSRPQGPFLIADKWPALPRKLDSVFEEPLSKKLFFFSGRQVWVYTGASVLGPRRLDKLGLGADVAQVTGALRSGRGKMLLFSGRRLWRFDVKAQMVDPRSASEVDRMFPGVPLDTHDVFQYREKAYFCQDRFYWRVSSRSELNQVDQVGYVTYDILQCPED
Description: proMMP9/MMP3 P126 Activation Assay
The reaction volume was 50 μL. […] Reactivity of residual MMP3 towards P-126 substrate was minimal under these conditions.

[2] = target: T2, proMMP13(1-268) (SEQ ID NO:7) (Homo sapiens, UniProt P45452); assay: ThermoFluor binding assay with proMMP13(1-268)
T2 construct: 6xHis (C); made in house; host or cells: HEK293 (transient, secreted)
Description: (§1) The ThermoFluor® (TF) assay is a 384-well plate-based binding assay that measures thermal stability of proteins (Biomol Screen 2001, 6, 429-40; Biochemistry 2005, 44, 5258-66). The experiments were carried out using instruments available from Johnson & Johnson Pharmaceutical Research & Development, LLC. TF dye used in all experiments was […] (1,8-ANS) (Invitrogen: A-47).
(§2) Compounds were arranged in a pre-dispensed plate (Greiner Bio-one: 781280), wherein compounds were serially diluted in 100% DMSO across 11 columns within a series. Columns 12 and 24 were used as DMSO reference and contained no compound. For multiple compound concentration-response experiments, the compound aliquots ([…]) were robotically predispensed directly into black 384-well polypropylene PCR microplates (Abgene: TF-0384/k) using a Cartesian Hummingbird liquid handler (DigiLab, Holliston, Mass.). Following compound dispense, protein and dye solutions were added to achieve the final assay volume of 3 μL. The assay solutions were overlayed with 1 μL of silicone oil (Fluka, type DC 200: 85411) to prevent evaporation.
(§3) Assay plates were robotically loaded onto a thermostatically controlled PCR-type thermal block and then heated from 40 to 90° C. at a ramp-rate of 1° C./min for all experiments. Fluorescence was measured by continuous illumination with UV light (Hamamatsu LC6) supplied via fiber optics and filtered through a band-pass filter (380-400 nm; >60D cutoff). Fluorescence emission of the entire 384-well plate was detected by measuring light intensity using a CCD camera (Sensys, Roper Scientific) filtered to detect 500±25 nm, resulting in simultaneous and independent readings of all 384 wells. A single image with 20-sec exposure time was collected at each temperature, and the sum of the pixel intensity in a given area of the assay plate was recorded vs temperature and fit to standard equations to yield the Tm (J Biomol Screen 2001, 6, 429-40).
(§4) Thermodynamic parameters necessary for fitting compound binding for each proMMP were estimated by differential scanning calorimetry (DSC) and from ThermoFluor® data. The heat capacity of unfolding for each protein was estimated from the molecular weight and from ThermoFluor® dosing data.
ThermoFluor® with proMMP13(1-268) (SEQ ID NO: 7)
The proMMP13(1-268) (SEQ ID NO:7) protein sample preparations included a desalting buffer exchange step via a PD-10 gravity column (GE Healthcare). The desalting buffer exchange was performed prior to diluting the protein to the final assay concentration of 3.5 μM. The concentration of proMMP13(1-268) (SEQ ID NO:7) was estimated spectrophotometrically based on a calculated extinction coefficient of ε280=37000 M^−1cm^−1, a calculated molecular weight of 30.8 kDa, and calculated pI of 5.33. ThermoFluor® reference conditions were defined as follows: 100 μg/mL proMMP13(1-268) (SEQ ID NO:7), 25 μM 1,8-ANS, pH 7.0 Buffer (50 mM HEPES pH 7.0, 100 mM NaCl, 0.001% Tween-20, 2.5 mM MgCl2, 300 μM CaCl2). The thermodynamic parameters for proMMP13(1-268) (SEQ ID NO:7) are as follows: Tm (° C.)=67 (+/−0.1), ΔUH(Tm) (cal mol^−1)=107000(+/−5000), ΔUS(Tm) (cal mol^−1 K^−1)=318, ΔUCp (cal mol^−1 K^−1)=2600.

[3] = target: T3, proMMP9(20-445;ΔFnII) (SEQ ID NO:6) (Homo sapiens, UniProt P14780, DEL216-390); assay: ThermoFluor binding assay with proMMP9(20-445;ΔFnII)
T3 construct: start methionine (N); made in house; host or cells: E. coli BL21(DE3) RIL
T3 sequence (P14780 with tags, fused parts or gaps DEL216-390): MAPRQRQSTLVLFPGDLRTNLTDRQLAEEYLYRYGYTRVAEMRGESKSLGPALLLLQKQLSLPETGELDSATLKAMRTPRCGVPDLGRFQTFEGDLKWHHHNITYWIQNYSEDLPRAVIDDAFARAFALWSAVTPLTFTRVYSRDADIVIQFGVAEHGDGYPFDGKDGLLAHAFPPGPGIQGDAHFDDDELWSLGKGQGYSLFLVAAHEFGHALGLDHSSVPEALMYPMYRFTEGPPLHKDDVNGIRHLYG
Outline: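 Thermal-shift binding using 2.8 μM proMMP9(20-445;ΔFnII) with 50 μM 1,8-ANS in 50 mM HEPES pH 7.0, 100 mM NaCl, 0.001% Tween-20, 2.5 mM MgCl2, 300 μM CaCl2. Compound serially diluted; heated 40–90 °C at 1 °C/min, fluorescence 500 nm. Tm shifts fitted using DSC/ThermoFluor-derived thermodynamic parameters.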

[4] = target: T4, proMMP9(67-444;ΔFnII) (SEQ ID NO:5) (Homo sapiens, UniProt P14780, DEL216-390); assay: ThermoFluor binding assay with proMMP9(67-444;ΔFnII)
T4 construct: start methionine (N); made in house; host or cells: E. coli BL21(DE3) RIL
T4 sequence (P14780 with tags, fused parts or gaps DEL216-390): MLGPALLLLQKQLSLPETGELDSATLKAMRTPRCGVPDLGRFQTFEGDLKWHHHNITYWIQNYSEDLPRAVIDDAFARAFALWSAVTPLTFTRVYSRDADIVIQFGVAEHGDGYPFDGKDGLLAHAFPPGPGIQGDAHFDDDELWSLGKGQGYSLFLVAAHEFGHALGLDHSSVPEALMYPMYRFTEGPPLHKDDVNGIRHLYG
Description: as §1, §2, §3, §4
ThermoFluor® with proMMP9(67-444;ΔFnII) (SEQ ID NO:5)
The protein sample preparations had to include a desalting buffer exchange step via a PD-10 gravity column (GE Healthcare). The desalting buffer exchange was performed prior to diluting the protein to the final assay concentration of 3.5 μM proMMP9(67-444;ΔFnII) (SEQ ID NO:5). The concentration of proMMP9(67-444;ΔFnII) (SEQ ID NO:5) was determined spectrophotometrically based on a calculated extinction coefficient of ε280=33900 M^−1cm^−1, a calculated molecular weight of 22.6 kDa, and calculated pI of 5.20. ThermoFluor® reference conditions were defined as follows: 80 μg/mL (3.5 μM) proMMP9(67-444;ΔFnII) (SEQ ID NO:5), 50 μM 1,8-ANS, pH 7.0 Buffer (50 mM HEPES pH 7.0, 100 mM NaCl, 0.001% Tween-20, 2.5 mM MgCl2, 300 μM CaCl2). The thermodynamic parameters for proMMP9(67-444;ΔFnII) (SEQ ID NO:5) are as follows: Tm (° C.)=63 (+/−0.1), ΔUH(Tm) (cal mol^−1)=105000(+/−5000), ΔUS(Tm) (cal mol^−1 K^−1)=[…], ΔUCp (cal mol^−1 K^−1)=2000.

Structure (SMILES)	pIC50 [1]	pKd [2]	pKd [3]	pKd [4]
CC(C)Oc1ccc(C(N)=O)cc1Nc1nc(-c2cccnc2)cs1 [Example 1, 4-Isopropoxy-3-(4-pyridin-3-yl-thiazol-2-ylamino)-benzamide.HBr]	6.44	6.51	6.80	6.00
CCOc1ccc(C(N)=O)cc1Nc1nc(-c2cccnc2)cs1 [Example 2, 4-Ethoxy-3-(4-pyridin-3-yl-thiazol-2-ylamino)-benzamide.TFA]	6.13	5.59	6.14	5.82
Cc1cc2cccc(Nc3nc(-c4cccnc4)cs3)c2o1 [Example 3, (2-Methyl-benzofuran-7-yl)-(4-pyridin-3-yl-thiazol-2-yl)-amine]	~5.30	< 4.02	4.48	4.42
COc1ccc(C(N)=O)cc1Nc1nc(-c2cccnc2)cs1 [Example 4, 4-Methoxy-3-(4-pyridin-3-yl-thiazol-2-ylamino)-benzamide.HBr]	5.30	4.92	5.89	5.48
COc1ccc(CC(N)=O)cc1Nc1nc(-c2cccnc2)cs1 [Example 5, 2-[4-Methoxy-3-(4-pyridin-3-yl-thiazol-2-ylamino)-phenyl]-acetamide]	~4.72	< 4.02	4.28	4.48
COc1ccc(C#N)cc1Nc1nc(-c2cccnc2)cs1 [Example 9, 4-Methoxy-3-(4-pyridin-3-yl-thiazol-2-ylamino)-benzonitrile.HBr]	5.59	4.74	5.13	4.37
COc1ccc(S(N)(=O)=O)cc1Nc1nc(-c2cccnc2)cs1 [Example 12, 4-Methoxy-3-(4-pyridin-3-yl-thiazol-2-ylamino)-benzenesulfonamide.TFA]	< 4.70	< 4.02	4.77	4.54
CC(C)Oc1ccc(S(N)(=O)=O)cc1Nc1nc(-c2cccnc2)cs1 [Example 13, 4-Isopropoxy-3-(4-pyridin-3-yl-thiazol-2-ylamino)-benzenesulfonamide.TFA]	5.62	5.92	5.64	5.00
CC(C)Oc1ccc(S(N)(=O)=O)cc1Nc1nc(-c2ccc(C(=O)N3CCNCC3)nc2)cs1 [Example 58, 4-Isopropoxy-3-{4-[6-(piperazine-1-carbonyl)-pyridin-3-yl]-thiazol-2-ylamino}-benzenesulfonamide.TFA]	5.85		5.92	5.51
NS(=O)(=O)c1ccc(OC(F)(F)F)c(Nc2nc(-c3cccnc3)cs2)c1 [Example 59, 3-(4-Pyridin-3-yl-thiazol-2-ylamino)-4-trifluoromethoxy-benzenesulfonamide]	< 4.70	< 4.02	4.44	
CC(C)Oc1ccc(S(N)(=O)=O)cc1Nc1nc(-c2ccc(NCC3CC3)nc2)cs1 [Example 62, 3-((4-(6-((Cyclopropylmethyl)amino)pyridin-3-yl)thiazol-2-yl)amino)-4-isopropoxybenzenesulfonamide.TFA]	6.21		6.29	5.66
CC(C)Oc1ccc(S(N)(=O)=O)cc1Nc1nc(-c2ccc(NCCCn3ccnc3)nc2)cs1 [Example 63, 3-((4-(6-((3-(1H-Imidazol-1-yl)propyl)amino)pyridin-3-yl)thiazol-2-yl)amino)-4-isopropoxybenzenesulfonamide.TFA]	6.82		6.68	6.55

Continued, values first:

pIC50 [1]	pKd [2]	pKd [3]	pKd [4]	Structure (SMILES)
6.92		6.59	5.60	CC(C)Oc1ccc(S(N)(=O)=O)cc1Nc1nc(-c2ccc(N3CCNC(=O)C3)nc2)cs1 [Example 64, 4-Isopropoxy-3-((4-(6-(3-oxopiperazin-1-yl)pyridin-3-yl)thiazol-2-yl)amino)benzenesulfonamide.TFA]
6.59		6.60	6.70	CC(C)Oc1ccc(S(N)(=O)=O)cc1Nc1nc(-c2ccc(C(=O)NC3CC(C)(C)N(C)C(C)(C)C3)nc2)cs1 [Example 84, 5-(2-((2-Isopropoxy-5-sulfamoylphenyl)amino)thiazol-4-yl)-N-(1,2,2,6,6-pentamethylpiperidin-4-yl)picolinamide.TFA]
~4.70		5.34	4.49	CC(C)CCNC(=O)c1ccc(-c2csc(Nc3cc(S(N)(=O)=O)ccc3OC(C)C)n2)cn1 [Example 85, N-Isopentyl-5-(2-((2-isopropoxy-5-sulfamoylphenyl)amino)thiazol-4-yl)picolinamide.TFA]
6.28		6.24	5.47	COC/C=C/c1ccc(-c2csc(Nc3cc(S(N)(=O)=O)ccc3OC(C)C)n2)cn1 [Example 93, (E)-4-Isopropoxy-3-((4-(6-(3-methoxyprop-1-en-1-yl)pyridin-3-yl)thiazol-2-yl)amino)benzenesulfonamide.TFA]
6.28		6.37	5.89	COCCCc1ccc(-c2csc(Nc3cc(S(N)(=O)=O)ccc3OC(C)C)n2)cn1 [Example 94, 4-Isopropoxy-3-((4-(6-(3-methoxypropyl)pyridin-3-yl)thiazol-2-yl)amino)benzenesulfonamide.TFA]
